Values of other authors in EP0163237A2, “Di- and tri-peptidal renin inhibitors” (Merck & Co., Inc., priority 1984, dated 1985).
Where a SMILES comes first, the peptide text is derived from it. [ ]: non-standard residue; d: D form. The star is where a group is joined. Sta = CC(C)C[C@H](N)[C@@H](O)CC(=O)O; Isovaleryl = CC(C)CC(=O)*

Tested on: hog renin
Conditions: after the injection of hog renin into nephrectomized rats

CC(C)CC(=O)N[C@H](C(=O)N[C@H](C(=O)N[C@@H](CC(C)C)[C@@H](O)CC(=O)N[C@@H](C)C(=O)N[C@@H](CC(C)C)[C@@H](O)CC(=O)O)C(C)C)C(C)C [pepstatin] (Isovaleryl-VV[Sta]A[Sta]-OH)
blood pressure in vivo: reduce blood pressure
